This passage reports MIC90 results from patent publication US9630977B2, “Cephalosporin derivatives and pharmaceutical compositions thereof” (Legochem Biosciences, Inc., priority 2011, dated 2017).

Molecules are shown by their SMILES. Values after ≈ are worked out from the molar mass of the structure shown. Like-named read-outs stand apart in the source and are kept apart here.

Assay in all cases: In vitro antibacterial activity test (broth microdilution)
Holding throughout (type): cell-based

The subject of one test is K. pneumoniae β9. Particulars: Klebsiella pneumoniae. How it is done: (§1) To evaluate antibacterial activity of each of the compounds of Examples 1 to 68, in vitro antibacterial activity test was performed.
(§2) The in vitro antibacterial activity was evaluated by measuring MIC90 (ug/mL) of each of the compounds of Examples 1 to 68, which is defined as the lowest concentration of an antibiotic that will inhibit the visible growth of 90% of microorganisms after incubation as compared with a control group to which the antibiotic is not treated. MIC90 values were measured by the broth microdilution method developed by the Clinical and Laboratory Standards Institute (CLSI) (see CLSI M7-A5, Methods for Dilution Antimicrobial Susceptibility Test for Bacteria that Grow Aerobically-Fifth Edition (2000): CLSI, Villanova, Pa.).
(§3) In vitro antibacterial activity was measured with respect to the following 19 clinical isolates: M. catarrhalis; P. aeruginosa (5 strains); K. pneumoniae (6 strains); A. baumannii (3 strains); E. coli (2 strains); A. calcoaceticus; and E. cloacae.
(§4) Test compounds each (the cephalosporin derivative compounds prepared in Examples 1 to 68) were dissolved in DMSO at the concentration of 10,240 ug/mL, were diluted by two fold with DMSO, and then were diluted by twenty fold with sterilized distilled water. The final concentration in the antibacterial activity test was in the range of […] to 128 ug/mL, and the final concentration of DMSO used as an adjuvant was 2.5% (V/V).

Another test deals with K. pneumoniae β13. Particulars: Klebsiella pneumoniae. How it is done: as §1, §2, §3, §4
The subject of the next test is P. aeruginosa 40. How it is done:
as §1, §2, §3, §4

The test system of another test is K. pneumoniae β10. Particulars: Klebsiella pneumoniae. How it is done: as §1, §2, §3, §4
A further test relates to E. coli β4. Particulars: Escherichia coli. How it is done: as §1, §2, §3, §4
Another test relates to M. catarrhalis 2524. Particulars: Moraxella catarrhalis. How it is done:
as §1, §2, §3, §4

A further test has as its system P. aeruginosa 6065Y. Particulars: Pseudomonas aeruginosa. How it is done:
as §1, §2, §3, §4

A further test relates to P. aeruginosa 43. Particulars: Pseudomonas aeruginosa. How it is done: as §1, §2, §3, §4
A further test relates to P. aeruginosa 37. Particulars: Pseudomonas aeruginosa, 37, P. aeruginosa 37. How it is done: as §1, §2, §3, §4
The next test relates to A. baumannii 52. Particulars: Acinetobacter baumannii. How it is done:
as §1, §2, §3, §4

The test system of test [1] is A. calcoaceticus ATCC15473. Particulars: Acinetobacter calcoaceticus. How it is done: as §1, §2, §3, §4
The next test concerns A. baumannii 49. How it is done: as §1, §2, §3, §4
The test system of the next test is E. coli AG100. Particulars: Escherichia coli. How it is done:
as §1, §2, §3, §4

A further test concerns E. cloacae β19. Particulars: Enterobacter cloacae. How it is done:
as §1, §2, §3, §4

For another test, the system named is P. aeruginosa 1912E. Particulars: Pseudomonas aeruginosa, 1912E. How it is done:
as §1, §2, §3, §4

For another test, the system named is A. baumannii 46. How it is done: as §1, §2, §3, §4
For a further test, the system named is K. pneumoniae β14. Particulars: Klebsiella pneumoniae. How it is done:
as §1, §2, §3, §4

A further test relates to K. pneumoniae β11. Particulars: Klebsiella pneumoniae. How it is done: as §1, §2, §3, §4
A further test concerns K. pneumoniae 2011E. Particulars: Klebsiella pneumoniae, 2011E. How it is done:
as §1, §2, §3, §4

Where [2] appears, read: K. pneumoniae β9, read-out: MIC90.
Setting [3] is: K. pneumoniae β13, read-out: MIC90.
Where [4] appears, read: Pseudomonas aeruginosa, 40, P. aeruginosa 40, read-out: MIC90.
Setting [5] is: K. pneumoniae β10, read-out: MIC90.
The mark [6] stands for this setting: M. catarrhalis 2524, read-out: MIC90.
[7] abbreviates: P. aeruginosa 43, read-out: MIC90.
The mark [8] stands for this setting: A. baumannii 52, read-out: MIC90.
Where [9] appears, read: A. calcoaceticus ATCC15473, read-out: MIC90.
Setting [10] is: Acinetobacter baumannii, A. baumannii 49, read-out: MIC90.
Setting [11] is: AG100, E. coli AG100, read-out: MIC90.
Setting [12] is: Acinetobacter baumannii, A. baumannii 46, read-out: MIC90.
Setting [13] is: K. pneumoniae β11, read-out: MIC90.
[14] abbreviates: K. pneumoniae 2011E, read-out: MIC90.

What is called MIC90 is an inhibitory concentration at the 90% level, which refers to growth in some studies and to a panel of isolates in others. As to `CC(C)(O/N=C(\C(=O)N[C@@H]1C(=O)N2C(C(=O)[O-])=C(C[n+]3cnc(N)c(NCCNC(=O)c4cc(=O)c(O)cn4O)c3)CSC12)c1csc(N)n1)C(=O)O` (stereo partly drawn) [Compound 1], the MIC90 in the test on K. pneumoniae β9 (setting [2]) was 4 µg/mL (≈ 5.17 µM); with K. pneumoniae β13 (setting [3]), 0.5 µg/mL (≈ 0.646 µM); in the test with P. aeruginosa 40 (setting [4]) it was 0.25 µg/mL (≈ 0.323 µM); with K. pneumoniae β10 (setting [5]), 0.125 µg/mL (≈ 0.162 µM); with E. coli β4 (read-out: MIC90), 2 µg/mL (≈ 2.58 µM); in the test with M. catarrhalis 2524 (setting [6]) it was 1 µg/mL (≈ 1.29 µM). Also, the MIC90 was 1 µg/mL (≈ 1.29 µM) in the test on P. aeruginosa 6065Y (read-out: MIC90); 0.25 µg/mL (≈ 0.323 µM) in the test on P. aeruginosa 43 (setting [7]); 0.5 µg/mL (≈ 0.646 µM) with P. aeruginosa 37 (read-out: MIC90); 32 µg/mL (≈ 41.4 µM) with A. baumannii 52 (setting [8]); 0.5 µg/mL (≈ 0.646 µM) in test [1] (setting [9]); 16 µg/mL (≈ 20.7 µM) in the test with A. baumannii 49 (setting [10]). Further, the MIC90 in the test on E. coli AG100 (setting [11]) was less than 0.0625 µg/mL; with E. cloacae β19 (read-out: MIC90), 2 µg/mL (≈ 2.58 µM); in the test on P. aeruginosa 1912E (read-out: MIC90), 0.25 µg/mL (≈ 0.323 µM); in the test on A. baumannii 46 (setting [12]) it was 4 µg/mL (≈ 5.17 µM); in the test with K. pneumoniae β14 (read-out: MIC90), 128 µg/mL (≈ 165 µM); in the test with K. pneumoniae β11 (setting [13]) it was 128 µg/mL (≈ 165 µM). For the same compound, in the test with K. pneumoniae 2011E (setting [14]), the MIC90 is 2 µg/mL (≈ 2.58 µM).

`CC(C)(O/N=C(\C(=O)N[C@@H]1C(=O)N2C(C(=O)[O-])=C(C[n+]3cnc(NCCN)c(NCCNC(=O)c4cc(=O)c(O)cn4O)c3)CSC12)c1csc(N)n1)C(=O)O` (stereo partly drawn) [Compound 5]: the MIC90 with K. pneumoniae β9 was less than 0.0625 µg/mL; in the test with K. pneumoniae β13, 0.5 µg/mL (≈ 0.612 µM); in the test on P. aeruginosa 40 (Pseudomonas aeruginosa, 40), 1 µg/mL (≈ 1.22 µM); in the test with K. pneumoniae β10 it was 1 µg/mL (≈ 1.22 µM); against E. coli β4, 0.5 µg/mL (≈ 0.612 µM); with M. catarrhalis 2524 (2524), 0.25 µg/mL (≈ 0.306 µM). In addition, the MIC90 is 4 µg/mL (≈ 4.9 µM) against P. aeruginosa 6065Y (6065Y); 0.25 µg/mL (≈ 0.306 µM) with P. aeruginosa 43 (43); 1 µg/mL (≈ 1.22 µM) in the test with P. aeruginosa 37; more than 128 µg/mL against A. baumannii 52 (52); 2 µg/mL (≈ 2.45 µM) in [1] (ATCC15473, A. calcoaceticus ATCC15473); more than 128 µg/mL with A. baumannii 49 (Acinetobacter baumannii, 49, A. baumannii 49). Also, the MIC90 in the test on E. coli AG100 (AG100) was less than 0.0625 µg/mL; with E. cloacae β19 it was 0.5 µg/mL (≈ 0.612 µM); against P. aeruginosa 1912E it was 1 µg/mL (≈ 1.22 µM); against A. baumannii 46 (Acinetobacter baumannii, 46, A. baumannii 46), 16 µg/mL (≈ 19.6 µM); against K. pneumoniae β14, 8 µg/mL (≈ 9.79 µM); against K. pneumoniae β11, 2 µg/mL (≈ 2.45 µM). Further, the MIC90 against K. pneumoniae 2011E was determined as 2 µg/mL (≈ 2.45 µM).

Take `CC(C)(O/N=C(\C(=O)N[C@@H]1C(=O)N2C(C(=O)[O-])=C(C[n+]3cnc(NCCNC(=O)c4cc(=O)c(O)cn4O)c(N)c3)CSC12)c1csc(N)n1)C(=O)O` (stereo partly drawn) [Compound 6]: the MIC90 in the test on K. pneumoniae β9 (setting [2]) was determined as 2 µg/mL (≈ 2.58 µM); in the test on K. pneumoniae β13 (setting [3]), 0.125 µg/mL (≈ 0.162 µM); in the test with P. aeruginosa 40 (setting [4]), 0.5 µg/mL (≈ 0.646 µM); with K. pneumoniae β10 (setting [5]), 0.5 µg/mL (≈ 0.646 µM); with E. coli β4 (read-out: MIC90), 4 µg/mL (≈ 5.17 µM); with M. catarrhalis 2524 (setting [6]), 2 µg/mL (≈ 2.58 µM). Further, the MIC90 in the test on P. aeruginosa 6065Y (read-out: MIC90) is 2 µg/mL (≈ 2.58 µM); in the test with P. aeruginosa 43 (setting [7]), 0.5 µg/mL (≈ 0.646 µM); in the test with P. aeruginosa 37 (read-out: MIC90), 0.5 µg/mL (≈ 0.646 µM); in the test on A. baumannii 52 (setting [8]), more than 128 µg/mL; in test [1] (setting [9]), 2 µg/mL (≈ 2.58 µM); with A. baumannii 49 (setting [10]), more than 128 µg/mL. Moreover, the MIC90 in the test on E. coli AG100 (setting [11]) is 0.25 µg/mL (≈ 0.323 µM); in the test with E. cloacae β19 (read-out: MIC90), 2 µg/mL (≈ 2.58 µM); with P. aeruginosa 1912E (read-out: MIC90) it was 0.5 µg/mL (≈ 0.646 µM); in the test on A. baumannii 46 (setting [12]), 32 µg/mL (≈ 41.4 µM); with K. pneumoniae β14 (read-out: MIC90) it was 16 µg/mL (≈ 20.7 µM); in the test with K. pneumoniae β11 (setting [13]), 8 µg/mL (≈ 10.3 µM). For the same compound, in the test on K. pneumoniae 2011E (setting [14]), the MIC90 was 4 µg/mL (≈ 5.17 µM).
